This is an account of results in patent US10618916B2, “Heterocyclic compounds as immunomodulators” (Incyte Corporation, priority 2018, dated 2020).

Each structure is given as a SMILES string.

For assay [1], the system named is U2OS/PD-L1 cells and Jurkat-PD-1-SHP cells. The assay can be described thus: Src homology region 2 domain-containing phosphatase (SHP) assay. The format is cell-based. Particulars: Homo sapiens, U2OS. The essentials:
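U2OS/PD-L1 and Jurkat-PD-1-SHP cells (5000 each per well) were co-incubated with compound for 2 h at 37 °C in RPMI1640 with 1% FBS, 0.05% DMSO final. PathHunter chemiluminescence was read after 1 h at room temperature, and IC50 was fitted from percent of DMSO-control activity.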

In a further assay the target is PD-L1 (Homo sapiens (Human), UniProt Q9NZQ7). Description: PD-L1 whole blood internalization assay. The format is cell-based. The settings on record: 24 HR, PD-L1 expression on CD14+ cells, human interferon γ.
Chain of PD-L1 (Q9NZQ7 19-290): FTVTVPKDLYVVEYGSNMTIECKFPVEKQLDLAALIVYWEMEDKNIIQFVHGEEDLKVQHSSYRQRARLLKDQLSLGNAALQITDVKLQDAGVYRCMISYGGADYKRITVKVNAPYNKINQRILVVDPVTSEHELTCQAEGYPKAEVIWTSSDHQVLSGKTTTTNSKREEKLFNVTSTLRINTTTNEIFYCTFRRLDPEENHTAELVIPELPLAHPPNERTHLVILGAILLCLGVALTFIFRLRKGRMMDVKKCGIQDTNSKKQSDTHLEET
Assay [2] addresses PD-1/PD-L1 protein/protein interaction (recombinant human PD-L1 and human PD-1) (Homo sapiens (Human), UniProt Q9NZQ7). The assay can be described thus: Homogeneous Time-Resolved Fluorescence (HTRF) PD-1/PD-L1 binding assay. The method, boiled down:
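Human PD-L1 (19-238, C-His; 10 nM final) and PD-1 (25-167, C-Fc; 3 nM final) preincubated 40 min with inhibitor in PBS pH 7.4, 0.05% Tween-20, 0.1% BSA, 1% DMSO, 25 °C. Eu-anti-human IgG (1 nM) and anti-His-APC (20 nM) added for 60 min; 665/620 nm ratio; IC50 from percent-control curves.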
(In general: Time-resolved FRET reads energy transfer from a long-lived donor to a nearby acceptor.)

Assay [3] has as its system PD-L1 aAPC/CHO-K1 cells and Jurkat-PD-1-NFAT effector cells. Description: Nuclear factor of activated T-cells (NFAT) assay. The format is cell-based. Particulars: Cricetulus griseus, CHO-K1. The essentials:
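CHO-K1 cells expressing PD-L1 aAPC were co-cultured with Jurkat-PD-1-NFAT effector cells in RPMI 1640 with 1% FBS and compound (0.4% DMSO; top concentration 2 μM) for 24 h at 37 °C. Bio-Glo luminescence was read, fold induction normalised to DMSO wells, and EC50 fitted from percent of control compound activity.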

Chain of PD-1/PD-L1 protein/protein interaction (recombinant human PD-L1 and human PD-1) (Q9NZQ7 19-238): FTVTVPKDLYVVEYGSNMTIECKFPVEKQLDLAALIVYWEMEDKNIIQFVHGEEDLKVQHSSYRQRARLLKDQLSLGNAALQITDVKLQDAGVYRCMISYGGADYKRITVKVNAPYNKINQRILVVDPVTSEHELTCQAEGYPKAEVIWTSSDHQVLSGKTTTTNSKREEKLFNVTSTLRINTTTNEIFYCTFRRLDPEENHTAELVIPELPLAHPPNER

With `Cc1c(NC(=O)c2nc3c(n2C)CCN(CCC24CCC(C(=O)O)(CC2)C4)C3)cccc1-c1cccc(NC(=O)c2nc3c(n2C)CCN(CCO)C3)c1Cl` [Example 43, 4-(2-(2-((2′-chloro-3′-(5-(2-hydroxyethyl)-1-methyl-4,5,6,7-tetrahydro-1H-imidazo[4,5-c]pyridine-2-carboxamido)-2-methyl-[1,1′-biphenyl]-3-yl)carbamoyl)-1-methyl-1,4,6,7-tetrahydro-5H-imidazo[4,5-c]pyridin-5-yl)ethyl)bicyclo[2.2.1]heptane-1-carboxylic acid], the IC50 – broadly, the concentration at which inhibition is half-maximal – is at most 0.01 µM in assay [1], 0.01 to 0.1 µM on PD-L1 and at most 0.005 µM in assay [2]. Also, the EC50 (as a rule, the concentration needed to bring the measured effect to its halfway point) in assay [3] lay in the range of 0.01 to 0.1 µM.
On to `Cc1c(NC(=O)c2nc3c(n2C)CCN(CCC24CCC(C(=O)O)(CC2)C4)C3)cccc1-c1cccc(NC(=O)c2nc3c(n2C)CCN(CC24CCC(C(=O)O)(CC2)C4)C3)c1Cl` [Example 44, 4-((2-((3′-(5-(2-(4-carboxybicyclo[2.2.1]heptan-1-yl)ethyl)-1-methyl-4,5,6,7-tetrahydro-1H-imidazo[4,5-c]pyridine-2-carboxamido)-2-chloro-2′-methyl-[1,1′-biphenyl]-3-yl)carbamoyl)-1-methyl-1,4,6,7-tetrahydro-5H-imidazo[4,5-c]pyridin-5-yl)methyl)bicyclo[2.2.1]heptane-1-carboxylic acid], for which the IC50 in assay [1] was at most 0.01 µM; on PD-L1, 0.1 to 0.5 µM; in assay [2], at most 0.005 µM. Moreover, the EC50 in assay [3] lay in the range of 0.01 to 0.1 µM.
Consider `Cc1c(NC(=O)c2nc3c(n2C)CCN(CCC24CCC(C(=O)O)(CC2)C4)C3)cccc1-c1cccc(NC(=O)c2nc3c(n2C)CCN(CCc2ccc(C(=O)O)cc2)C3)c1Cl` [Example 45, 4-(2-(2-((3′-(5-(4-carboxyphenethyl)-1-methyl-4,5,6,7-tetrahydro-1H-imidazo[4,5-c]pyridine-2-carboxamido)-2′-chloro-2-methyl-[1,1′-biphenyl]-3-yl)carbamoyl)-1-methyl-1,4,6,7-tetrahydro-5H-imidazo[4,5-c]pyridin-5-yl)ethyl)bicyclo[2.2.1]heptane-1-carboxylic acid], for which the IC50 was at most 0.01 µM in assay [1], 0.1 to 0.5 µM at PD-L1 and 0.005 to 0.01 µM in assay [2]. The same molecule returned an EC50 in assay [3] of 0.01 to 0.1 µM.
Turning to `Cn1c(C(=O)Nc2cccc(-c3cccc(NC(=O)c4nc5c(n4C)CCN(CCC46CCC(C(=O)O)(CC4)C6)C5)c3C#N)c2Cl)nc2c1CCN(CCC13CCC(C(=O)O)(CC1)C3)C2` [Example 51, 4,4′-(((((2-chloro-2′-cyano-[1,1′-biphenyl]-3,3′-diyl)bis(azanediyl))bis(carbonyl))bis(1-methyl-1,4,6,7-tetrahydro-5H-imidazo[4,5-c]pyridine-2,5-diyl))bis(ethane-2,1-diyl))bis(bicyclo[2.2.1]heptane-1-carboxylic acid)], the results for the IC50 (in assay [1]; against PD-L1; in assay [2]) were at most 0.01 µM, 0.01 to 0.1 µM and at most 0.005 µM, respectively. For the same molecule, the EC50 in assay [3] was 0.01 to 0.1 µM.
Regarding `Cc1c(NC(=O)c2nc3c(n2C)CCN(CCC24CCC(C(=O)O)(CC2)C4)C3)cccc1-c1cccc(NC(=O)c2nc3c(n2C)CCN(CCC24CCC(C(=O)O)(CC2)C4)C3)c1C` [Example 54, 4,4′-(((((2,2′-dimethyl-[1,1′-biphenyl]-3,3′-diyl)bis(azanediyl))bis(carbonyl))bis(1-methyl-1,4,6,7-tetrahydro-5H-imidazo[4,5-c]pyridine-2,5-diyl))bis(ethane-2,1-diyl))bis(bicyclo[2.2.1]heptane-1-carboxylic acid)], the IC50 is at most 0.01 µM in assay [1], 0.1 to 0.5 µM at PD-L1 and at most 0.005 µM in assay [2]. In assay [3], this molecule had an EC50 of 0.01 to 0.1 µM.
Regarding `Cc1c(NC(=O)c2nc3c(n2C)CCN(CCC24CCC(C(=O)O)(CC2)C4)C3)cccc1-c1cccc(NC(=O)c2nc3c(n2C)CCN(C2CCOCC2)C3)c1C` [Example 56, 4-(2-(2-((2,2′-dimethyl-3′-(1-methyl-5-(tetrahydro-2H-pyran-4-yl)-4,5,6,7-tetrahydro-1H-imidazo[4,5-c]pyridine-2-carboxamido)-[1,1′-biphenyl]-3-yl)carbamoyl)-1-methyl-1,4,6,7-tetrahydro-5H-imidazo[4,5-c]pyridin-5-yl)ethyl)bicyclo[2.2.1]heptane-1-carboxylic acid], the IC50 in assay [1] is at most 0.01 µM; at PD-L1 it was 0.1 to 0.5 µM; in assay [2], at most 0.005 µM. This molecule also displayed a concentration for a half-maximal effect (EC50) in assay [3] of 0.01 to 0.1 µM.
The corresponding values for `Cc1c(NC(=O)c2nc3c(n2C)CCN(CCC24CCC(C(=O)O)(CC2)C4)C3)cccc1-c1cccc(NC(=O)c2nc3c(n2C)CCN(C[C@@H](C)O)C3)c1C` [Example 57, (R)-4-(2-(2-((3′-(5-(2-hydroxypropyl)-1-methyl-4,5,6,7-tetrahydro-1H-imidazo[4,5-c]pyridine-2-carboxamido)-2,2′-dimethyl-[1,1′-biphenyl]-3-yl)carbamoyl)-1-methyl-1,4,6,7-tetrahydro-5H-imidazo[4,5-c]pyridin-5-yl)ethyl)bicyclo[2.2.1]heptane-1-carboxylic Acid] are at most 0.01 µM, 0.01 to 0.1 µM, at most 0.005 µM and 0.01 to 0.1 µM.
The corresponding values for `Cc1c(NC(=O)c2nc3c(n2C)CCN(CCC24CCC(C(=O)O)(CC2)C4)C3)cccc1-c1cccc(NC(=O)c2nc3c(n2C)CCN(C[C@H](C)O)C3)c1C` [Example 58, (S)-4-(2-(2-((3′-(5-(2-hydroxypropyl)-1-methyl-4,5,6,7-tetrahydro-1H-imidazo[4,5-c]pyridine-2-carboxamido)-2,2′-dimethyl-[1,1′-biphenyl]-3-yl)carbamoyl)-1-methyl-1,4,6,7-tetrahydro-5H-imidazo[4,5-c]pyridin-5-yl)ethyl)bicyclo[2.2.1]heptane-1-carboxylic acid] are at most 0.01 µM, 0.1 to 0.5 µM, at most 0.005 µM and 0.01 to 0.1 µM.
For `Cn1c(C(=O)Nc2cccc(-c3cccc(NC(=O)c4nc5c(n4C)CCN(CC[C@H]4CC[C@H](C(=O)O)CC4)C5)c3Cl)c2Cl)nc2c1CCN(CCC13CCC(C(=O)O)(CC1)C3)C2` [Example 62, 4-(2-(2-((3′-(5-(2-(trans-4-carboxycyclohexyl)ethyl)-1-methyl-4,5,6,7-tetrahydro-1H-imidazo[4,5-c]pyridine-2-carboxamido)-2,2′-dichloro-[1,1′-biphenyl]-3-yl)carbamoyl)-1-methyl-1,4,6,7-tetrahydro-5H-imidazo[4,5-c]pyridin-5-yl)ethyl)bicyclo[2.2.1]heptane-1-carboxylic acid], the results for the IC50 (in assay [1]; on PD-L1; in assay [2]) were at most 0.01 µM, 0.01 to 0.1 µM and at most 0.005 µM, respectively. The EC50 in assay [3] fell in the range of 0.01 to 0.1 µM.
With `Cn1c(C(=O)Nc2cccc(-c3cccc(NC(=O)c4nc5c(n4C)CCN([C@H]4CC[C@@](C)(C(=O)O)CC4)C5)c3Cl)c2Cl)nc2c1CCN(CCC13CCC(C(=O)O)(CC1)C3)C2` [Example 65, 4-(2-(2-((3′-(5-(cis-4-carboxy-4-methylcyclohexyl)-1-methyl-4,5,6,7-tetrahydro-1H-imidazo[4,5-c]pyridine-2-carboxamido)-2,2′-dichloro-[1,1′-biphenyl]-3-yl)carbamoyl)-1-methyl-1,4,6,7-tetrahydro-5H-imidazo[4,5-c]pyridin-5-yl)ethyl)bicyclo[2.2.1]heptane-1-carboxylic Acid], the results for the IC50 (in assay [1]; against PD-L1; in assay [2]) were at most 0.01 µM, 0.01 to 0.1 µM and at most 0.005 µM, respectively. Moreover, the EC50 in assay [3] lay within 0.01 to 0.1 µM.
Regarding `Cn1c(C(=O)Nc2cccc(-c3cccc(NC(=O)c4nc5c(n4C)CCN([C@H]4CC[C@](C)(C(=O)O)CC4)C5)c3Cl)c2Cl)nc2c1CCN(CCC13CCC(C(=O)O)(CC1)C3)C2` [Example 66, 4-(2-(2-((3′-(5-(trans-4-carboxy-4-methylcyclohexyl)-1-methyl-4,5,6,7-tetrahydro-1H-imidazo[4,5-c]pyridine-2-carboxamido)-2,2′-dichloro-[1,1′-biphenyl]-3-yl)carbamoyl)-1-methyl-1,4,6,7-tetrahydro-5H-imidazo[4,5-c]pyridin-5-yl)ethyl)bicyclo[2.2.1]heptane-1-carboxylic Acid], the IC50 in assay [1] is at most 0.01 µM; on PD-L1, 0.01 to 0.1 µM; in assay [2] it was at most 0.005 µM. In addition, the EC50 in assay [3] was at most 0.01 µM.
